Structures can show the parent of a compound that is named as a salt.
Tests used:
[1] = biological target: Sigma-1 receptor (Cavia porcellus); test: Binding affinity for sigma receptor in guinea pig brain membrane using radiolabeled ligand [3H]-(+)-SKF- 10,047 was determined
[2] = Binding affinity for dopamine receptor D2 in guinea pig striatal membrane using radiolabeled ligand [3H]spiperone

Row | Ki [1] [nM] | Ki [2] [nM] | Structure (SMILES)
1 | 9 | 10000 | CCN(CC)CCC1(C)OC=C(c2ccccc2)C1=O (configuration not stated) [2-(2-Diethylamino-ethyl)-2-methyl-4-phenyl-furan-3-one; hydrochloride]
2 | 44 | > 10000 | CCN(CC)CCC1(C)OC(c2ccccc2)=CC1=O (configuration not stated) [2-(2-Diethylamino-ethyl)-2-methyl-5-phenyl-furan-3-one; hydrochloride]
3 | 223 | 2690 | CN(C)CCC1(c2ccccc2)OC=C(c2ccccc2)C1=O (configuration not stated) [2-(2-Dimethylamino-ethyl)-2,4-diphenyl-furan-3-one; hydrochloride]
4 | 16 | > 10000 | CCN(CC)CCCC1(C)OC=C(c2ccccc2)C1=O (configuration not stated) [2-(3-Diethylamino-propyl)-2-methyl-4-phenyl-furan-3-one; hydrochloride]
5 | 6 | 5320 | O=C1C=C(c2ccc(F)cc2)OC12CCN(CCc1ccccc1)CC2 [2-(4-Fluoro-phenyl)-8-phenethyl-1-oxa-8-aza-spiro[4.5]dec-2-en-4-one; hydrochloride]
6 | 24 | 217 | O=C1C(c2ccc(F)cc2)=COC12CCN(CCc1ccccc1)CC2 [3-(4-Fluoro-phenyl)-8-phenethyl-1-oxa-8-aza-spiro[4.5]dec-2-en-4-one; hydrochloride]
7 | 30 | 2070 | COc1ccc(C2=COC3(CCN(CCc4ccccc4)CC3)C2=O)cc1 [3-(4-Methoxy-phenyl)-8-phenethyl-1-oxa-8-aza-spiro[4.5]dec-2-en-4-one; hydrochloride]
8 | 35 | 3130 | O=C1C(c2ccc3ccccc3c2)=COC12CCN(CCc1ccccc1)CC2 [3-Naphthalen-2-yl-8-phenethyl-1-oxa-8-aza-spiro[4.5]dec-2-en-4-one; hydrochloride]
9 | 4520 | > 10000 | O=C1C=C(c2ccccc2)OC12CCCN(Cc1ccccc1)C2 (configuration not stated) [7-Benzyl-2-phenyl-1-oxa-7-aza-spiro[4.5]dec-2-en-4-one; hydrochloride]
10 | 32 | 20000 | O=C1C(c2ccccc2)=COC12CCN(Cc1ccccc1)C2 (configuration not stated) [7-Benzyl-3-phenyl-1-oxa-7-aza-spiro[4.4]non-2-en-4-one; hydrochloride]
11 | 695 | > 10000 | O=C1C(c2ccccc2)=COC12CCCN(Cc1ccccc1)C2 (configuration not stated) [7-Benzyl-3-phenyl-1-oxa-7-aza-spiro[4.5]dec-2-en-4-one; hydrochloride]
12 | 384 | 152 | O=C(CCCN1CCCC2(C1)OC(c1ccccc1)=CC2=O)c1ccc(F)cc1 (configuration not stated) [7-[4-(4-Fluoro-phenyl)-4-oxo-butyl]-2-phenyl-1-oxa-7-aza-spiro[4.5]dec-2-en-4-one; hydrochloride]
13 | 232 | 2110 | O=C1C(c2ccccc2)=COC12CCN(Cc1cccc(Cl)c1)CC2 [8-(3-Chloro-benzyl)-3-phenyl-1-oxa-8-aza-spiro[4.5]dec-2-en-4-one; hydrochloride]
14 | 7500 | 32000 | Cc1cc(CN2CCC3(CC2)OC=C(c2ccccc2)C3=O)on1 [8-(3-Methyl-isoxazol-5-ylmethyl)-3-phenyl-1-oxa-8-aza-spiro[4.5]dec-2-en-4-one; hydrochloride]
15 | 3 | 2420 | O=C1C(c2ccccc2)=COC12CCN(Cc1ccc(F)cc1)CC2 [8-(4-Fluoro-benzyl)-3-phenyl-1-oxa-8-aza-spiro[4.5]dec-2-en-4-one; hydrochloride]
16 | 163 | 4870 | C=CCN1CCC2(CC1)OC=C(c1ccccc1)C2=O [8-Allyl-3-phenyl-1-oxa-8-aza-spiro[4.5]dec-2-en-4-one; hydrochloride]
17 | 1 | > 10000 | O=C1C=C(c2ccccc2)OC12CCN(Cc1ccccc1)CC2 [8-Benzyl-2-phenyl-1-oxa-8-aza-spiro[4.5]dec-2-en-4-one; hydrochloride]
18 | – | 1420 | O=C1C(c2ccc(F)cc2)=COC12CCN(Cc1ccccc1)CC2 [8-Benzyl-3-(4-fluoro-phenyl)-1-oxa-8-aza-spiro[4.5]dec-2-en-4-one; hydrochloride]
19 | 4 | 2370 | O=C1C(c2ccccc2)=COC12CCN(Cc1ccccc1)CC2 [8-Benzyl-3-phenyl-1-oxa-8-aza-spiro[4.5]dec-2-en-4-one; hydrochloride]
20 | 2 | 962 | O=C1C(c2ccc(F)cc2)=COC12CCN(CC1CCCCC1)CC2 [8-Cyclohexylmethyl-3-(4-fluoro-phenyl)-1-oxa-8-aza-spiro[4.5]dec-2-en-4-one; hydrochloride]
21 | 1 | 642 | O=C1C(c2ccccc2)=COC12CCN(CC1CCCCC1)CC2 [8-Cyclohexylmethyl-3-phenyl-1-oxa-8-aza-spiro[4.5]dec-2-en-4-one; hydrochloride]
22 | 1 | 7180 | O=C1C=C(c2ccccc2)OC12CCN(CCc1ccccc1)CC2 [8-Phenethyl-2-phenyl-1-oxa-8-aza-spiro[4.5]dec-2-en-4-one; hydrochloride]
23 | 17 | 70 | O=C(CCCN1CCC2(CC1)OC=C(c1ccccc1)C2=O)c1ccc(F)cc1 [8-[4-(4-Fluoro-phenyl)-4-oxo-butyl]-3-phenyl-1-oxa-8-aza-spiro[4.5]dec-2-en-4-one; hydrochloride]

Row | Structure (SMILES) | Ki [1] [nM] | Ki [2] [nM]
24 | CN1CCC2(CC1)OC(C)(c1ccccc1)CC2=O (configuration not stated) [2,8-Dimethyl-2-phenyl-1-oxa-8-aza-spiro[4.5]decan-4-one; compound with (E)-but-2-enedioic acid] | 214 | 10000
25 | O=C1C=C(c2ccccc2)OC12CCNCC2 [2-Phenyl-1-oxa-8-aza-spiro[4.5]dec-2-en-4-one; hydrochloride] | 462 | > 10000
26 | CN1CCC2(CC1)OC=C(c1ccc(F)cc1)C2=O [3-(4-Fluoro-phenyl)-8-methyl-1-oxa-8-aza-spiro[4.5]dec-2-en-4-one; hydrochloride] | 4000 | 2600
27 | O=C1C(c2ccccc2)=COC12CCNCC2 [3-Phenyl-1-oxa-8-aza-spiro[4.5]dec-2-en-4-one; hydrochloride] | 6220 | 10000
28 | CN1CCC2(CC1)OC(c1ccccc1)=CC2=O [8-Methyl-2-phenyl-1-oxa-8-aza-spiro[4.5]dec-2-en-4-one; hydrochloride] | 298 | 2900
29 | CN1CCC2(CC1)OC=C(c1ccccc1)C2=O [8-Methyl-3-phenyl-1-oxa-8-aza-spiro[4.5]dec-2-en-4-one; hydrochloride] | 580 | > 10000
